Laboratory results reported in patent EP0185130A1, “5-Alkoxy-2,4,6-triodo or tribromo-isophthalic-acid derivatives, process for their preparation and X-ray contrast agents containing them” (BRACCO INDUSTRIA CHIMICA Società per Azioni, priority 1984, dated 1986).
In brackets after ≈: the same amount, converted by molar mass. Like-named read-outs stand apart in the source and are kept apart here. Blank lines part the entries; values can stand above or below the compound they belong to.

Test: Water solubility
Format: physicochemical
Settings: for solubility: water, read-out: Wasserlöslichkeit
[1] = result in words, no temperature stated

Structure (SMILES): O=C(NCC(O)CO)c1c(I)c(OCCOCCOCCOCCOCCOc2c(I)c(C(=O)NCC(O)CO)c(I)c(C(=O)NC(CO)CO)c2I)c(I)c(C(=O)NC(CO)CO)c1I (centres unmarked) [Beispiel 45, 1,14-Bis-(3-(1,3-dihydroxyisopropylaminocarbonyl)-5-(2,3-dihydroxy-propylaminocarbonyl)-2,4,6-trijodphenoxy)-3,6,9,12-tetraoxatetradecan]
- Wasserlöslichkeit [1]: gut wasserlöslich

Structure (SMILES): CC(Oc1c(I)c(C(=O)NC(CO)CO)c(I)c(C(=O)NC(CO)CO)c1I)C(=O)N(C)CC(O)C(O)CO (centres unmarked) [Beispiel 22, (5-(1(N-Methyl-N-2,3,4-trihydroxybutyl)aminocarbonyl)ethoxy)-2,4,6-trijodisophthalsäure-bis(1,3-dihydroxyisopropylamid)]
- Wasserlöslichkeit (bei 25 °C): > 100 % (g/v)

Structure (SMILES): CCOCCOCCOc1c(I)c(C(=O)N(CCO)CC(O)CO)c(I)c(C(=O)N(CCO)CC(O)CO)c1I (centres unmarked) [Beispiel 41, 5-(3,6-Dioxaoctyl)oxy-2,4,6-trijodisophthalsäure-bis(N-2-hydroxyethyl-N-2,3-dihydroxypropylamid)]
- solubility (bei Raumtemperatur): > 1000 mg/mL

Structure (SMILES): CCOCCOCCOc1c(I)c(C(=O)N(C)CC(O)CO)c(I)c(C(=O)N(C)CC(O)CO)c1I (centres unmarked) [Beispiel 40, 5-(3,6-Dioxaoctyl)oxy-2,4,6-trijodisophthalsäure-bis(N-methyl-N-2,3-dihydroxypropylamid)]
- solubility (bei 25 °C): > 600 mg/mL

Structure (SMILES): CC(Oc1c(I)c(C(=O)NC(CO)CO)c(I)c(C(=O)NC(CO)CO)c1I)C(=O)N(C)C[C@H](O)[C@@H](O)[C@H](O)[C@H](O)CO (some centres unmarked) [Beispiel 28 R,S]
- solubility (bei 25 °C): > 1000 mg/mL

Structure (SMILES): CCOCCOCCOc1c(I)c(C(=O)NC(CO)CO)c(I)c(C(=O)NC(CO)CO)c1I [Beispiel 1, 5-(3,6-Dioxaoctyl)oxy-2,4,6-trijodisophthalsäure-bis(1,3-dihydroxyiso-propylamid)]
- solubility (bei 20 °C): 60 mg/mL (≈ 73 mM)
- solubility (bei Siedetemperatur): 1000 mg/mL (≈ 1220 mM)

Other lines, results leading:

- solubility (bei 20 °C): > 1000 mg/mL
Structure (SMILES): CN(C[C@H](O)[C@@H](O)[C@H](O)[C@H](O)CO)C(=O)COc1c(Br)c(C(=O)NCC(O)CO)c(Br)c(C(=O)NCC(O)CO)c1Br (some centres unmarked) [Beispiel 38, 5-(N-Methyl-N-2,3,4,5,6-pentahydroxyhexyl)aminocarbonylmethoxy-2,4,6-tribromisophthalsäure-bis(2,3-dihydroxypropylamid)]

- solubility (bei 25 °C): 12 mg/mL (≈ 14.9 mM)
- solubility (bei Siedetemperatur): 130 mg/mL (≈ 161 mM)
Structure (SMILES): O=C(COc1c(I)c(C(=O)NCC(O)CO)c(I)c(C(=O)NCC(O)CO)c1I)NCCO (centres unmarked) [Beispiel 31, 5-(2-Hydroxyethylaminocarbonylmethoxy)-2,4,6-trijodisophthalsäure-bis(2,3-dihydroxypropylamid)]

- solubility (bei 20 °C): > 1000 mg/mL
Structure (SMILES): CN(CC(O)CO)C(=O)COc1c(I)c(C(=O)NC(CO)CO)c(I)c(C(=O)NC(CO)CO)c1I (centres unmarked) [Beispiel 19, 5-(N-Methyl-N-2,3-dihydroxypropyl)aminocarbonylmethoxy-2,4,6-trijodiso-phthalsäure-bis-(1,3-dihydroxyisopropylamid)]

- solubility (bei 20 °C): 1000 mg/mL (≈ 1060 mM)
Structure (SMILES): CN(C[C@H](O)[C@@H](O)[C@H](O)[C@H](O)CO)C(=O)COc1c(I)c(C(=O)NC(CO)CO)c(I)c(C(=O)NC(CO)CO)c1I [Beispiel 27, 5-(N-Methyl-N-2,3,4,5,6-pentahydroxyhexyl)aminocarbonylmethoxy-2,4,6-trijodisophthalsäure-bis(1,3-dihydroxyisopropylamid)]

- solubility (no temperature stated): > 1000 mg/mL
Structure (SMILES): C[C@@H](Oc1c(I)c(C(=O)NC(CO)CO)c(I)c(C(=O)NC(CO)CO)c1I)C(=O)N(CCO)CC(O)CO (some centres unmarked) [Beispiel 24, R-5(1((N-2-Hydroxyethyl-N-2,3-dihydroxypropyl)aminocarbonyl)ethoxy)-2,4,6-trijodisophthalsäure-bis(1,3-dihydroxyisopropylamid)]

- Wasserlöslichkeit [1]: leicht löslich in Wasser
Structure (SMILES): O=C(COc1c(I)c(C(=O)NC(CO)CO)c(I)c(C(=O)NC(CO)CO)c1I)NCC(O)CO (centres unmarked) [Beispiel 49, 5-(2,3-Dihydroxypropylaminocarbonyl)methoxy-2,4,6-trijodisophthalsäure-bis(1,3-dihydroxyisopropylamid)]
